The values that follow come from patent publication US11612634B2 (priority 2020, dated 2023).

Entries after “also recorded” stand apart in the source; their conditions may differ.

The subject of experiment [1] is morphine analgesic tolerance, inflammatory pain rat model. Description: Effect on morphine analgesic tolerance in Carr-induced inflammatory pain rat model. Format: in vivo. Conditions: for effect on morphine analgesic tolerance: every 2 h. As to the method: The Carr-induced inflammatory pain model was built according to a published method (Alessandri-Haber N, et al. Neurosci. Vol 29(19), pp. 6217-6288, 2009) for evaluating an analgesic effect of drugs administered by intraplantar injection. Specifically, 6 μL of 1 wt % Carr solution was injected into the rats between the 2nd and 3rd toes of a left hind paw to induce hyperalgesia, which was manifested as plantar swelling and a declined pain threshold of the rats within 1 hour after the injection. Those rats with a PWT lower than 100 gf were considered to be a desired Carr-induced inflammatory pain model, those rats with the PWT higher than 100 gf was removed.
(1) 24 healthy adult SD rats, weighing 180-220 g, were selected, reinjected with 6 μL of a 1 wt % Carr solution and divided into 4 groups randomly and averagely (i.e., groups A-D). The group A was injected with normal saline; the group B was intradermally injected with 0.1 μg/kg of the short peptide P10581 through the plantar surface of the left hind paw; the group C was intradermally injected with 0.1 μg/kg of the short peptide P10581 and then with 5 mg/kg of morphine 30 min later through the plantar surface of the left hind paw; and the group D was intradermally injected with 0.05 μg/kg of the short peptide P10581, and then with 5 mg/kg of morphine 30 min later through the plantar surface of the left hind paw. 1 h later, the PWT of each group was recorded when the mechanical withdrawal of the left hind paw occurred, and each rat was measured 3-5 times at an interval of 5-10 min.
(2) The drug was injected every 2 h according to the above-mentioned administration dose and time (seven times in total), and the PWT was recorded.
(S1) By means of molecular biological techniques, two cysteine residues (Cys10 and Cys11) in the short peptide P10581 were replaced with alanine (Ala), and the resulting peptide was named P10581-1 (SEQ ID NO: 2).
(S2) Three cysteine residues (Cys10, Cys11 and Cys17) in the short peptide P10581 were replaced with alanine (Ala), and the resulting peptide was named P10581-2 (SEQ ID NO: 3).
The rat was injected with 6 μL of 1 wt % Carr to establish a Carr-induced inflammatory pain model, and the effect of the short peptides P10581, P10581-1 and P10581-2 on the morphine analgesic tolerance was analyzed according to Experimental Example 1. […]

The subject of experiment [2] is morphine analgesic tolerance, BCP rat model. Description: Effect on morphine analgesic tolerance in BCP rat model. Type of experiment: in vivo. How it is done:
The successfully-established BCP model rats were divided into 4 groups randomly on the 22nd day after modeling, where the group A was injected with 0.2 μg/kg of the short peptide P10581; the group B was injected with 0.2 μg/kg of the short peptide P10581, and injected with 5 mg/kg of the morphine 30 min later; the group C was injected with 0.4 μg/kg of the short peptide P10581; and the group D was injected with 0.4 μg/kg of the short peptide P10581, and injected with 5 mg/kg of the morphine 30 min later. 1 h later, the PWT of the right hind paw of each group was recorded. Each of the rats was measured 3-5 times with an interval of 5-10 min, and the PWTs were averaged to taken as the practical PWT (unit: g). The drug administration was performed twice a day (at 9:30 a.m. and 4:30 p.m.) for consecutive 4 days, and the PWT of each group before and after the administration in the morning was measured.
ΔPWT (%) in FIG. 15D was calculated as follows: ΔPWT(%)=100*{[PWT(post-drug)−PWT(pre-drug)]/ΔPWT(Maxi)}(%): […]

As to WKCNPNDDKCCRPKLKC [P10581], the “effect on morphine analgesic tolerance” value is listed as “morphine analgesic tolerance can be eliminated; also recorded: completely eliminate the morphine analgesic tolerance” in experiment [1] (0.05 μg/kg peptide i.d. 30 min before 5 mg/kg morphine) and “morphine analgesic tolerance can be eliminated; also recorded: completely eliminated” in experiment [1] (0.1 μg/kg peptide i.d. 30 min before 5 mg/kg morphine). For the same sequence, in experiment [1] (0.1 μg/kg and 0.05 μg/kg peptide with 5 mg/kg morphine), the “duration of eliminating effect on morphine analgesic tolerance” value is listed as “over 14 h”. Besides, the “dose at which morphine analgesic tolerance is effectively alleviated” value in experiment [1] (inflammatory pain, rats) is not below 0.05 µg/kg. Moreover, the “reversal of morphine analgesic tolerance for BCP” value in experiment [2] (0.2 μg/kg peptide S.C. before 5 mg/kg morphine, twice a day, 4 days) was found to be 73.9%. Moreover, the “restoration of analgesic effect of morphine on BCP” value in experiment [2] (0.4 μg/kg peptide S.C. before 5 mg/kg morphine, repeated) was “completely restored”. Besides, in experiment [2] (BCP, rats), the “dose at which morphine analgesic tolerance is effectively eliminated” value was not below 0.20 µg/kg.
